The results in this text go back to patent US20170152245A1 (National Taiwan University, priority 2015, published 2017).

Assay [1] relates to human platelet-rich plasma. In words: Arachidonic acid-induced platelet aggregation in human platelet-rich plasma. Format: cell-based. The following applies: arachidonic acid 200 μM. The method, then:
Human platelet suspension (PS) was prepared according to the method described previously. Briefly, blood sample, freshly obtained from healthy volunteers who had taken no medications during the preceding 2 weeks, was treated with acid citrate/dextrose (ACD) in a volume ratio of 9:1. After centrifugation at 120 g, 25° C. for 9 min, platelet-rich plasma was transferred into another plastic tube and incubated with heparin (6.4 U/ml) as well as prostaglandin E1 (1 μM). Platelets were spun down by centrifugation at 500 g, 25° C. for 8 min and subsequently washed two times with Tyrode solution (NaH2PO4 0.4 mM; NaCl 136.9 mM; KCl […]; NaHCO3 11.9 mM; CaCl2 2 mM; MgCl2 2.1 mM; glucose 11.1 mM; BSA 3.5 mg/ml; pH 7.35-7.4). The washed platelets were finally suspended in Tyrode's solution and the platelet count was adjusted to 3.75×10^8 platelets/ml. For platelet-rich plasma (PRP) preparation, whole blood was anticoagulated with 1/10 vol of sodium citrate (3.8%, w/v) and centrifuged at 150 g, 25° C. for 9 min.
Platelet aggregation was measured turbidimetrically with a Lumi-aggregometer (Payton Scientific) at 37° C. under stirring condition (900 rpm). […] The extent of platelet aggregation was determined by recording the increase of light transmission relative to that of control (maximal aggregation, as 100%) for 6 min after the addition of inducer. […]

For assay [2], the system named is mouse PRP. The assay is described as follows: Ex vivo mouse PRP aggregation caused by U46619. The class given is in vivo, mice. The following applies: 10 μg/g i.v.; U46619 0.125 μM; compared to nstpbp5185. The method, then:
Mice were i.v. injected with vehicle, nstpbp5185 (10 μg/g) or Ctkf6f2 (10 μg/g). The blood samples were collected within 10 mins by intracardiac puncture for PRP, and U46619 (0.125 μM) was added. Platelet aggregation was measured turbidimetrically using platelet aggregometer. Shown are representative of three independent experiments.
Furthermore, the platelet aggregation was evaluated on ex vivo mouse model. The mouse was i.v. administered with compound 5185 (10 μg/g) or Ctkf6f2 (10 μg/g), compared to the vehicle-treated control. The blood was collected and evaluated for its response to U46619 (0.125 μM) on the aggregometer (FIG. 10).

Assay [3] deals with T1, Thromboxane synthase (Homo sapiens, UniProt P24557).
T1 construct: MDS
T1 sequence (P24557 1-533): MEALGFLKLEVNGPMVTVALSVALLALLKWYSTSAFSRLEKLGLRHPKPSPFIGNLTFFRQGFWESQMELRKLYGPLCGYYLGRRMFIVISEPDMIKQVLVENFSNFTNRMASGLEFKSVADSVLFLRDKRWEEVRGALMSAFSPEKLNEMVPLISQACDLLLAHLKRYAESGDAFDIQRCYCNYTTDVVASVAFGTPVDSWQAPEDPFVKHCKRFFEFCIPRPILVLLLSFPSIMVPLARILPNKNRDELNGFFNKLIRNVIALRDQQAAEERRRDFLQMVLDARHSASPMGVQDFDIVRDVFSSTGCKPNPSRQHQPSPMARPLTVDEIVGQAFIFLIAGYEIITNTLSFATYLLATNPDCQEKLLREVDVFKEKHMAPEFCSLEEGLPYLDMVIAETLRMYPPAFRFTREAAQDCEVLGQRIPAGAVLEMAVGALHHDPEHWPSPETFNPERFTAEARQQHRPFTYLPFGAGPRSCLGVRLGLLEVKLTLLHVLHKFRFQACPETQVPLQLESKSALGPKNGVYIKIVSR
The assay is described as follows: Thromboxane synthase activity (Table III comparison). Format: biochemical. The method, then:
These kinases or enzymatic assays were performed by MDS according to the standardized methods

Assay [4] concerns rat carotid artery. In words: Balloon-injury rat carotid artery model (neointima formation). Format: in vivo. The following applies: 1 or 2 mg/kg/day intraperitoneally for 2 weeks; rats. The protocol:
We used the established rat carotid artery (CA) model of balloon angioplasty to examine the in vivo arterial response to injury^20. Briefly, male Wistar rats weighing 350-400 g were anesthetized with intraperitoneal pentobarbital (50 mg/kg), and the left CA was exposed. A Fogarty 2F embolectomy balloon catheter was inserted into the left external carotid artery through arteriotomy incision and advanced to the aortic arch. The balloon was inflated and withdrawn three times with rotation at the same pressure. Followed by removal of the catheter, the external carotid artery was ligated and the wound closed. Animals were given standard rat chow and tap water, and i.p. administered 1 and 2 mg/kg or vehicle daily for 2 weeks, at which time they were sacrificed, and the sections from both the right and left (collateral control group) CA were harvested to fix with 4% paraformaldehyde in PBS overnight for study. All procedures involving animal experiments were approved by the Institutional Animal Care and Use Committee of Collagen of Medicine, National Taiwan University.
We further determined the inhibitory effect of nstpbp5185 on neointima formation after carotid artery injury. […] (FIG. 16G) Data are quantified by the neointima/media ratio of common carotid arteries after balloon injury. […]

`Cc1ccc(-c2nc3ccc(F)cc3n2Cc2cccc(F)c2)o1` [Ctkf6f2, 6-fluoro-1-(3-fluorobenzyl)-2-(5-methyl-2-furyl)benzimidazole] yielded an IC50 in assay [1] of 8.87 ± 2.52 µM. In assay [2], the “inhibition of platelet aggregation of PRP induced by U46619, ex vivo” value is given as “superior inhibition”.

Consider `Cc1ccc(-c2nc3ccccc3n2Cc2ccccc2)o1` [Example 6, 1-Benzyl-2-(5-methyl-2-furyl)benzimidazole], for which the Thromboxane synthase result in assay [3] (Table III arrows) is listed as “↓”. Besides, the IC50 in assay [3] (read-out: Thromboxane synthase inhibition IC50) turned out to be 10 µM. Besides, the “N/M ratio (neointima/media)” value in assay [4] is recorded as “significantly inhibited”.

By IC50 is commonly meant the point on the concentration scale where inhibition reaches its midpoint.
